Measurements published in patent US8852648B2, “Delivery of biologically-active agents using volatile, hydrophobic solvents” (Rochal Industries, LLP, priority 2012, dated 2014).
“Also recorded” adds a separate entry of the source. Where a name gives a salt, the structure may show the parent alone. Read-outs that look alike come from different tables or passages of the source.

Columns and labels:
[1] = in water; cited from earlier work
[2] = tested on: methicillin-resistant Staphylococcus aureus, ATCC 700787; experiment: Zone of inhibition, antimicrobials in AOT and Cavilon, TSA plates; assay type: cell-based
Procedure: (§1) All microbiological testing was done by INCELL Corporation, San Antonio, Tex. All zones of inhibition data were measured in mm.
(§2) The zones of inhibition testing for methicillin-resistant Staphylococcus aureus and Pseudomonas aeruginosa were performed as described below. The bacteria were purchased from ATCC and expanded in Tryptic soy broth overnight. Each of the bacteria cultures was then spread onto Tryptic soy agar (TSA) plates. Sterile cloning cylinders containing the biologically-active agent in a volatile, hydrophobic solvent (0.1 mL per cylinder) were placed on the TSA plates and allowed to air dry for 1 h at room temperature. Neosporin was used as a positive control. The TSA plates were observed and photographed after 24 h, 48 h, and 72 h. Images were used to measure zone of inhibition or areas of clearing surrounding the delivered material.
(§3) The polymer substrate chosen for the sustained release studies of biologically-active antimicrobial over time was Cavilon. The Cavilon solution is composed of a proprietary acrylate polymer and a smaller amount of polyphenylmethylsiloxane in HMDS and ISO. This was used as a negative control for all zone of inhibition studies (Tables 8-10).

[3] = tested on: Pseudomonas aeruginosa, ATCC 27853; experiment: as above; assay type: cell-based; settings: for ZOI 24 h / ZOI 48 h / ZOI 72 h: agent with AOT in Cavilon polymer, HMDS/ISO, 0.1 mL per cylinder, Neosporin 100 μL; for ZOI behaviour in words: with AOT in Cavilon polymer, over three days
Procedure: as §1, §2, §3

[4] = in water solution; cited from earlier work
albino rabbits = experiment: Animal skin-irritation study, Draize scoring; assay type: in vivo, rabbit; settings: Cavilon solution containing 0.5 wt % AOT
Procedure: Another concern with the use of a reverse emulsion surfactant for its application to mammalian skin is its potential to cause skin irritation. It has been reported that in water solution AOT can be irritating to skin (M. Changez and M. Varshney, Drug Development and Industrial Pharmacy, 26(5), 507-512 (2000)). To test if AOT is skin-irritating when used in a volatile, hydrophobic solvent with the presence of polymer, an animal skin-irritation study was conducted by Toxikon Corporation, Cavilon solution containing 0.5 wt % AOT was examined, and Cavilon solution was used as a negative control.
Three albino rabbits were used for the skin irritation study. The application sites were prepared by clipping the skin of the trunk free of hair within 24 h before application of the test and control substances. The animals were treated by applying an AOT-containing Cavilon solution and the Cavilon negative control (0.5 mL) directly onto skin over a skin area of approximate 6 cm^2. The test solution was applied to the skin on the left side of the spine and the control solution was applied to the skin on the right side of the spine. The AOT solution and the negative control were each applied sequentially to three sites, and observed at 6, 24, 48, and 72 h for signs of erythema and edema. Observations were scored according to the Draize Scale for Scoring. […]

[5] = tested on: mammalian cells such as fibroblasts, kidney cells, and cancer cells; settings: in water solution; cited from earlier work
Candida albicans = settings: reported, G. N. Kern; cited from earlier work
[6] = tested on: Gram negative bacteria such as Pseudomonas aeruginosa; settings: reported, G. N. Kern; cited from earlier work
[7] = tested on: L929 mouse fibroblast cell; experiment: Cytotoxicity testing, agar overlay with neutral red; settings: for Zone Size / Grade (biological reactivity): 0.05 wt % AOT in Cavilon; for Zone Size: applied to agar surface; for Grade (biological reactivity): scale Grade 0 to Grade 4
Procedure: Also of consideration for application to animal and human skin is the potential of toxicity to mammalian cells for reverse emulsion surfactants such as AOT. […] […] Cavilon solution without AOT was used as a negative control.
The biological reactivity of L929 mouse fibroblast cell in response to the AOT Cavilon solution was determined. The monolayer of fibroblasts was cultured in an agar plate, and the cell viability was evaluated using a vital dye (neutral red). The AOT Cavilon solution was applied directly to the surface of the agar. Positive (Buna-N-Rubber) and negative (Negative Control Plastic, Cavilon solution) control articles were prepared to verify the proper functioning of the test system. The cultures were incubated at 37±1° C., in a humidified atmosphere containing 5±1% carbon dioxide. Zone of inhibition was measured, and biological reactivity (cellular degeneration and malformation) was rated on a scale from Grade 0 (No reactivity) to Grade 4 (Severe reactivity) at 24 and 48 hours. The experiment was run in triplicate.

[8] = tested on: Gram positive bacteria such as Staphylococcus aureus; settings: reported, G. N. Kern; cited from earlier work
[9] = tested on: Candida albicans, ATCC 10231; experiment: Zone of inhibition, antimicrobials in AOT and Cavilon, TSA plates; assay type: cell-based; settings: for ZOI 24 h / ZOI 48 h / ZOI 72 h: agent with AOT in Cavilon polymer, HMDS/ISO, 0.1 mL per cylinder, Roccal 1 %
Procedure: as §1
The zones of inhibition testing was also performed with Candida albicans, purchased from ATCC and expanded in Tryptic soy broth overnight. This fungi culture was diluted to 0.1 OD 600 units and spread onto TSA plates. Sterile cloning cylinders were placed on the TSA plates, charged with the biologically-active agent in a volatile, hydrophobic solvent (0.1 mL per cylinder) and allowed to air dry for 1 h at room temperature. A 1% Roccal solution was used as a positive control. The TSA plates were observed and photographed after 24 h, 48 h, and 72 h. Images were used to measure zone of inhibition or areas of clearing surrounding the delivered material.
as §3

[10] = Solubility in non-polar hydrophobic solvents ISO and HMDS; assay type: physicochemical; settings: without reverse emulsion surfactant
From the text: For all formulations in the following Examples, each biologically-active agent was inherently insoluble in the non-polar, hydrophobic solvents tested, namely, isooctane (ISO) and hexamethyldisiloxane (HMDS). Solubility occurred in the presence of a reverse emulsion surfactant, with or without the presence of added water, to give optically clear, homogeneous solutions. Since the concentrations of the biologically-active agents (Active) were considerably less than that of the solvent used, the data in the Tables pertaining to all ingredients were rounded-off to the next highest number.

[11] = 24 h, agent with AOT in Cavilon polymer, HMDS/ISO, 0.1 mL per cylinder, Neosporin 100 μL
[12] = 48 h, agent with AOT in Cavilon polymer, HMDS/ISO, 0.1 mL per cylinder, Neosporin 100 μL
[13] = 72 h, agent with AOT in Cavilon polymer, HMDS/ISO, 0.1 mL per cylinder, Neosporin 100 μL
[14] = with AOT in Cavilon polymer, over three days

N=C(NCCCCCCNC(=N)NC(=N)Nc1ccc(Cl)cc1)NC(=N)Nc1ccc(Cl)cc1.O=C(O)[C@H](O)[C@@H](O)[C@H](O)[C@H](O)CO.O=C(O)[C@H](O)[C@@H](O)[C@H](O)[C@H](O)CO [CHG, Chlorhexidine Digluconate]
water solubility [1]: 20%
ZOI 24 h [2, 11]: 11.53 mm
ZOI 48 h [2, 12]: 11.03 mm
ZOI 72 h [2, 13]: 11.67 mm
ZOI behaviour in words [2, 14]: exceptional results
ZOI 24 h [3]: 2.77 mm
ZOI 48 h [3]: 0 mm
ZOI 72 h [3]: 0 mm
ZOI behaviour in words [3]: less effective

CCCCC(CC)COC(=O)CC(C(=O)OCC(CC)CCCC)S(=O)(=O)[O-].[Na+] (stereo not shown) [AOT, sodium bis(2-ethylhexyl)sulfosuccinate]
skin irritation, in words [4]: irritating
signs of erythema or edema (albino rabbits; 0.5 mL on skin, observed at 6, 24, 48, and 72 h): None of the AOT solution sites presented any signs of erythema or edema
skin irritation classification (albino rabbits; Draize Scale): non-irritant
cytotoxic concentration [5]: 0.002 wt %
ZOI 24 h [2]: 5.34 mm
ZOI 48 h [2]: 6.3 mm
ZOI 72 h [2]: 5.32 mm
ZOI behaviour in words [2]: active
ZOI 24 h [3]: 8.18 mm
ZOI 48 h [3]: 8.22 mm
ZOI 72 h [3]: 11.2 mm
ZOI behaviour in words [3]: considerably more effective against Pseudomonas aeruginosa than Neosporin; also recorded: highly effective
antifungal activity, in words (Candida albicans): effective
antibacterial activity, in words [6]: inactive
Zone Size ([7]; 24 hours): 0 cm
Grade (biological reactivity) ([7]; 24 hours): 0
Zone Size ([7]; 48 hours): 0 cm
Grade (biological reactivity) ([7]; 48 hours): 0
toxicity to mammalian cells, in words ([7]; AOT Cavilon solution, 0.5 wt % AOT): not toxic
antibacterial activity, in words [8]: active
ZOI 24 h [9]: 12.7 mm
ZOI 48 h [9]: 12.4 mm
ZOI 72 h [9]: 13.3 mm

CCCCC(CC)CNC(=N)NC(=N)NCCCCCCNC(=N)NC(=N)NCC(CC)CCCC (stereo not shown) [ALEX, 1,1′-hexamethylenebis[5-(2-ethylhexyl)biguanide]dihydrochloride]
water solubility [1]: 0.1%

NC[C@@H]1O[C@H](O[C@@H]2[C@@H](CO)OC(O[C@@H]3[C@@H](O)[C@H](N)C[C@H](N)[C@H]3OC3O[C@H](CN)[C@@H](O)[C@H](O)[C@H]3N)[C@@H]2O)[C@H](N)[C@@H](O)[C@@H]1O (stereo partly shown) [NEO, Neomycin Trisulfate]
ZOI 24 h [2, 11]: 8.95 mm
ZOI 48 h [2, 12]: 8.94 mm
ZOI 72 h [2, 13]: 9.71 mm
ZOI behaviour in words [2, 14]: highly effective
ZOI 24 h [3]: 7.43 mm
ZOI 48 h [3]: 6.41 mm
ZOI 72 h [3]: 7.61 mm

O=[N+]([O-])[O-].[Ag+] [AgNO3, Silver Nitrate]
ZOI 24 h [2, 11]: 8.16 mm
ZOI 48 h [2, 12]: 9 mm
ZOI 72 h [2, 13]: 8.18 mm
ZOI behaviour in words [2, 14]: highly effective

Clc1ccc(COC(Cn2ccnc2)c2ccc(Cl)cc2Cl)c(Cl)c1 (stereo not shown) [MICON, Miconazole Nitrate]
ZOI 24 h [9]: 16.5 mm
ZOI 48 h [9]: 14.9 mm
ZOI 72 h [9]: 15 mm
ZOI behaviour in words [9, 14]: superior to that of AOT by itself and PHMB with AOT

CCCCCCCCCCCC(=O)[O-].[Na+] [SL, sodium dodecanoate]
solubility in isooctane (ISO) and hexamethyldisiloxane (HMDS) [10]: insoluble
